Test results reported in patent publication US4918054A, “Antibiotics called `chloropolysporins B and C`, a process for their preparation, and their therapeutic and veterinary use” (Sankyo Company Limited, priority 1985, dated 1990).
In brackets after ≈: the same amount, converted by molar mass.

Key:
[1] = tested on: Serratia marcescens SANK 73060; experiment: MIC, two-fold agar dilution method, Mueller-Hinton agar; assay type: cell-based
[2] = tested on: Enterococcus faecalis SANK 71778; experiment: as above; assay type: cell-based
[3] = tested on: Klebsiella pneumoniae PCI 602; experiment: as above; assay type: cell-based
Propionibacterium acnes = experiment: MIC against anaerobic bacteria, GAM agar medium; assay type: cell-based
[4] = tested on: Escherichia coli NIHJ JC-2; experiment: MIC, two-fold agar dilution method, Mueller-Hinton agar; assay type: cell-based
Solubility in solvents = assay type: physicochemical
[5] = tested on: Staphylococcus aureus Smith; experiment: MIC, two-fold agar dilution method, Mueller-Hinton agar; assay type: cell-based
Clostridium perfringens = assay type: cell-based; conditions: anaerobic, GAM agar
Clostridium ramosum = experiment: MIC against anaerobic bacteria, GAM agar medium; assay type: cell-based
[6] = tested on: Staphylococcus aureus SANK 70175; experiment: MIC, two-fold agar dilution method, Mueller-Hinton agar; assay type: cell-based
Bacteroides fragilis = experiment: MIC against anaerobic bacteria, GAM agar medium; assay type: cell-based
[7] = tested on: Peptostreptococcus saccharoliticus; experiment: MIC against anaerobic bacteria, GAM agar medium; assay type: cell-based
[8] = tested on: Bacillus subtilis PCI 219; experiment: MIC, two-fold agar dilution method, Mueller-Hinton agar; assay type: cell-based
[9] = tested on: Staphylococcus epidermidis SANK 71575; experiment: as above; assay type: cell-based
[10] = tested on: Peptostreptococcus parvulus; experiment: MIC against anaerobic bacteria, GAM agar medium; assay type: cell-based
Clostridium difficile = experiment: MIC against anaerobic bacteria, GAM agar medium; assay type: cell-based
Method: The minimal inhibitory concentrations (MIC) of chloropolysporins B and C against various gram-positive and gram-negative bacteria were determined by the two-fold agar dilution method, using a Mueller-Hinton agar medium (produced by Difco); the MIC against anaerobic bacteria was determined using a GAM agar medium (produced by Nissui).

[11] = tested on: Staphylococcus aureus FDA 209P JC-1; experiment: MIC, two-fold agar dilution method, Mueller-Hinton agar; assay type: cell-based
[12] = tested on: Proteus mirabilis SANK 70461; experiment: as above; assay type: cell-based
Eubacterium cylindroides = experiment: MIC against anaerobic bacteria, GAM agar medium; assay type: cell-based
[13] = tested on: Pseudomonas aeruginosa NCTC 10490; experiment: MIC, two-fold agar dilution method, Mueller-Hinton agar; assay type: cell-based
[14] = tested on: Mycobacterium smegmatis ATCC 607; experiment: as above; assay type: cell-based
[15] = tested on: Fusobacterium necrophorum; experiment: MIC against anaerobic bacteria, GAM agar medium; assay type: cell-based
Clostridium symbiosum = experiment: MIC against anaerobic bacteria, GAM agar medium; assay type: cell-based

Compound	MIC [1] [µg/mL]	MIC [2] [µg/mL]	MIC [3] [µg/mL]	MIC (Propionibacterium acnes) [µg/mL]	MIC [4] [µg/mL]	solubility in acetone (Solubility in solvents; as its sulfate)	solubility in benzene (Solubility in solvents; as its sulfate)	solubility in chloroform (Solubility in solvents; as its sulfate)	solubility in ethyl acetate (Solubility in solvents; as its sulfate)	solubility in methanol (Solubility in solvents; as its sulfate)	solubility in water (Solubility in solvents; as its sulfate)	solubility in water (Solubility in solvents; free bases)	MIC [5] [µg/mL]	MIC (Clostridium perfringens) [µg/mL]	MIC (Clostridium ramosum) [µg/mL]	MIC [6] [µg/mL]	MIC (Bacteroides fragilis) [µg/mL]	MIC [7] [µg/mL]	MIC [8] [µg/mL]	MIC [9] [µg/mL]	other results
CNC(C(=O)NC1C(=O)NC(c2ccc(O)c(Cl)c2)C(=O)NC2C(=O)NC3C(=O)NC(C(=O)NC(C(=O)O)c4cc(O)cc(O)c4-c4cc3ccc4O)C(OC3CC(N)C(O)C(C)O3)c3ccc(c(Cl)c3)Oc3cc2cc(c3OC2OC(CO)C(O)C(O)C2O)Oc2ccc(cc2Cl)C1OC1OC(CO)C(O)C(O)C1O)c1ccc(OC2OC(C)C(O)C(O)C2O)cc1 (stereo not shown) [Chloropolysporin B, chloropolysporin B]	> 100	1.56 (≈ 0.844 µM)	> 100	0.78 (≈ 0.422 µM)	> 100	sparingly soluble	insoluble	insoluble	insoluble	soluble	soluble	insoluble in water	12.5 (≈ 6.76 µM)	0.20 (≈ 0.108 µM)	1.56 (≈ 0.844 µM)	3.13 (≈ 1.69 µM)	> 100	6.25 (≈ 3.38 µM)	0.78 (≈ 0.422 µM)	3.13 (≈ 1.69 µM)	MIC [10]: 0.78 µg/mL (≈ 0.422 µM); MIC (Clostridium difficile): 0.78 µg/mL (≈ 0.422 µM); MIC [11]: 1.56 µg/mL (≈ 0.844 µM); MIC [12]: > 100 µg/mL; MIC (Eubacterium cylindroides): 6.25 µg/mL (≈ 3.38 µM); MIC [13]: > 100 µg/mL; MIC [14]: 25.0 µg/mL (≈ 13.5 µM); MIC [15]: > 100 µg/mL; MIC (Clostridium symbiosum): 1.56 µg/mL (≈ 0.844 µM)
CNC(C(=O)NC1C(=O)NC(c2ccc(O)c(Cl)c2)C(=O)NC2C(=O)NC3C(=O)NC(C(=O)NC(C(=O)O)c4cc(O)cc(O)c4-c4cc3ccc4O)C(OC3CC(N)C(O)C(C)O3)c3ccc(c(Cl)c3)Oc3cc2cc(c3OC2OC(CO)C(O)C(O)C2O)Oc2ccc(cc2Cl)C1OC1OC(CO)C(O)C(O)C1O)c1ccc(O)cc1 (stereo not shown) [Chloropolysporin C, chloropolysporin C]	> 100	1.56 (≈ 0.916 µM)	> 100	0.39 (≈ 0.229 µM)	> 100	sparingly soluble	insoluble	insoluble	insoluble	soluble	soluble	insoluble in water	6.25 (≈ 3.67 µM)	0.10 (≈ 0.0587 µM)	1.56 (≈ 0.916 µM)	1.56 (≈ 0.916 µM)	> 100	3.13 (≈ 1.84 µM)	0.78 (≈ 0.458 µM)	3.13 (≈ 1.84 µM)	MIC [10]: 0.39 µg/mL (≈ 0.229 µM); MIC (Clostridium difficile): 0.39 µg/mL (≈ 0.229 µM); MIC [11]: 1.56 µg/mL (≈ 0.916 µM); MIC [12]: > 100 µg/mL; MIC (Eubacterium cylindroides): 3.13 µg/mL (≈ 1.84 µM); MIC [13]: > 100 µg/mL; MIC [14]: 12.5 µg/mL (≈ 7.34 µM); MIC [15]: > 100 µg/mL; MIC (Clostridium symbiosum): 0.39 µg/mL (≈ 0.229 µM)
